Patent US20050075399A1, “Methods and kits for enhancing ability to learn in a puppy or kitten” (The Procter & Gamble Company, priority 2003, published 2005)

Tests used:
Type in all cases: in vivo
[1] = test system: purebred beagle puppies; assay: Three-door multiple shape testing (symbol as the cue); details: for puppies that passed the test on their initial testing: pass = at least 80% correct
Description: (§1) A study is conducted to determine effect of compositions described herein upon the ability of puppies to learn in a training environment.
(§2) Twelve purebred beagle puppies are randomized and assigned to either Group 1 or Group 2. Each of Groups 1 and 2 contains six of the puppies. Each of the puppies is about nine weeks of age. Their respective weights are appropriate for age and body size.
(§3) Two treatment compositions are utilized for the study. These compositions are: 1) for Group 1, a nutritionally balanced food composition comprising an essential fatty acid component comprising 0.18% DHA, by weight of the composition; and 2) for Group 2, a nutritionally balanced food composition which is similar in all respects except that the essential fatty acid component comprises 0.02% DHA, by weight of the composition.
(§4) Throughout the study, the puppies are fed their respective compositions ad libitum. Treats are utilized for training purposes; the treats which are used are PURINA® Puppy Canned Formula.
Following location training, each puppy receives two days of shape training, wherein the study shapes are randomly placed on different doors simultaneously. The objective is to determine whether the puppy learns that the symbol is associated with the treat target, not the door location. Following this training, each puppy received two testing sessions to determine ability to identify the symbol as the cue. A puppy is determined to pass if at least 80% of the test is correct. Puppies that failed are given two additional days of training and are retested. A puppy is given a maximum of three attempts to pass the multiple shape testing.
Each puppy is randomly assigned a shape of either a square or a circle. The “correct” door is the door bearing the shape which is assigned to the puppy; the location of the “correct” door is systematically modified throughout the study such that the puppy must learn to identify with the shape rather than the location of the door. The puppies are trained for several days in order to learn the process of choosing the “correct” door within a time period of two minutes. Training occurs with various learning procedures, including placing a trail of treats in front of the “correct” door.
After several days of training, the learning procedures are eliminated and the puppy performs without intervention. The puppy is given two minutes to reach the “correct” door. If the puppy fails to reach the “correct” door within the two minute time period, the puppy receives an incorrect score for that attempt. If the puppy reaches the “correct” door within the two minute time period, the puppy receives a correct score for that attempt.

[2] = test system: purebred beagle puppies; assay: Maze test of the ability of puppies to learn in a training environment (success criteria); details: puppy and maternal animal
Description: as §1
Ten purebred beagle puppies are randomized and assigned to Group 1 (n=3), Group 2 (n=3), or Group 3 (n=4). Each of the puppies is about nine weeks of age. Their respective weights are appropriate for age and body size.
as §3, with “Three” for “Two”, “about 0.14%” for “0.18%”, “composition;” for “composition; and”, “comprises about 0.08% DHA, by weight of the composition; and 3) for Group 3, a nutritionally balanced food composition which is similar in all respects except that the essential fatty acid component comprises about” for “comprises”
The respective maternal animal for each puppy in Group 1 receives, ad libitum, a nutritionally balanced food composition comprising an essential fatty acid component comprising about 0.14% DHA, by weight of the composition, during gestation, nursing, or weaning (or any combination thereof) of such puppy.
The respective maternal animal for each puppy in Group 2 receives, ad libitum, a nutritionally balanced food composition comprising an essential fatty acid component comprising about 0.08% DHA, by weight of the composition, during gestation, nursing, or weaning (or any combination thereof) of such puppy.
The respective maternal animal for each puppy in Group 3 receives, ad libitum, a nutritionally balanced food composition comprising an essential fatty acid component comprising about 0.02% DHA, by weight of the composition, during gestation, nursing, or weaning (or any combination thereof) of such puppy.
Throughout the study, the puppies are fed their respective compositions twice daily. Treats are utilized for training purposes; the treats which are used are PURINA® Puppy Canned Formula.
The study utilizes a room having a maze constructed in general accordance with the maze illustrated in FIG. 2. Referring now to FIG. 2, Point A Crate is a starting area and contains a crate with a door that cannot be seen through. This crate door is easily opened by a study technician. The crate allows immediate entrance into the maze when the door is opened. The crate door is opened either upward or flat, or by some other means such that the maze path is not obstructed. Point B Maze Symbol contains one of two symbols (i.e., a circle and square) indicating to the trained puppy where the treat will be located. The symbol is attached at a height which is easily visualized by the puppy. Point C Treat Pan is the ending location where the treat pan will be located. Point C Treat Pan is the correct designation for a maze designated left. Point D Treat Pan is the ending location where another treat pan will be located. Point D Treat Pan is the correct designation for a maze designated right.
Prior to training, each puppy is randomly assigned two symbol-direction combinations. The possible groupings are identified below as Groups A and B:
Training with assistance takes place for one week. Each puppy is trained in accordance to whether it is a Group A puppy or a Group B puppy. For Group A puppies, the puppy is trained numerous times to learn that if a treat is placed on the circle at Point B Maze Symbol, then another treat is located to the right at Point D Treat Pan. Likewise, for Group A puppies, the puppy is trained the same number of time to learn that if a treat is placed on the square at Point B Maze Symbol, then another treat is located to the left at Point C Treat Pan. Group B puppies will follow this same outline with the exception that sessions with a circle as the symbol will go to the left and a square as the symbol will go right. […]

[3] = test system: purebred beagle puppies; assay: Three-door location training test (assigned door); details: all puppies regardless of group (0.18% DHA or 0.02% DHA food composition, ad libitum)
Description: as §1, §2, §3, §4
The study utilizes three doors of identical size and shape. Each puppy is randomly assigned to one of three doors along with a random symbol (circle or square) for location training. The objective of the study is to train the puppy to reach the “correct” door, i.e. the door bearing the shape which is assigned to the respective puppy. A box is marked with tape in front of each door. […]

[4] = Group 1 (n=6): food composition 0.18% DHA ad libitum
[5] = Group 2 (n=6): food composition 0.02% DHA ad libitum
[6] = Group 1 (n=3): food composition about 0.14% DHA
[7] = Group 2 (n=3): food composition about 0.08% DHA
[8] = Group 3 (n=4): food composition about 0.02% DHA

CC/C=C\C/C=C\C/C=C\C/C=C\C/C=C\C/C=C\CCC(=O)O [DHA, docosahexaenoic acid]
puppies that passed following additional training days [1, 4]: 75% | puppies that passed the test on their initial testing [1, 4]: 50% | puppies that passed following additional training days [1, 5]: 45% | puppies that passed the test on their initial testing [1, 5]: 16% | puppies that achieved a single success criteria [2, 6]: 100% | puppies that achieved two success criteria [2, 6]: 66% | puppies that achieved a single success criteria [2, 7]: 66% | puppies that achieved two success criteria [2, 7]: 0% | puppies that achieved a single success criteria [2, 8]: 50% | puppies that achieved two success criteria [2, 8]: 0% | correct scores in locating the assigned location (door) [3]: greater than 90%
